Data published in the supplement of paper PMC11451515.

Key:
Conditions in all cases: 48 h
NOMO1 [1] = assay: cell viability relative to DMSO control; higher = less cytotoxic
Summary of the method: (§1)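 Three leukemia lines were tested: NOMO1 and SEM at 500 cells/well and P12-Ichikawa at 1000 cells/well. Each was adapted for at least four passages in each medium and seeded in 5 μl in 1536-well plates, and library compounds in DMSO were pin-dosed from 47 μM to 0.79 nM in 11 threefold steps. After 48 h at 37°C, CellTiter-Glo One luminescence was read. Viability is a percentage relative to DMSO wells on each plate, with cell-free wells as background.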

P12-Ichikawa [2] = assay: as above
Summary of the method: as §1

SEM cells [3] = assay: as above
Summary of the method: as §1

NOMO1 [4] = assay: AUC of viability dose-response curve (% viability x log10 dose units); higher = less sensitive
Summary of the method: (§2)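 Leukemia cells adapted to each medium were seeded in 1536-well plates (500 or 1000 cells/well). They were dosed with library compounds in DMSO at 11 threefold doses, 47 μM to 0.79 nM, for 48 h at 37°C. CellTiter-Glo One luminescence was normalised per plate to DMSO and cell-free wells. Area under the curve was integrated by trapezoidal rule over log10 doses on a four-parameter log-logistic fit; curves exceeding full viability were scaled and curves failing quality control removed.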

P12-Ichikawa [5] = assay: as above
Summary of the method: as §2

SEM cells [6] = assay: as above
Summary of the method: as §2

CCC(=O)N1CCN(CC1)C2=C(C=C(C=C2)N3C(=O)\C=C/C4=C3C5=CC(=CC=C5N=C4)C6=CN=C7C=CC=CC7=C6)C(F)(F)F
cell viability [%]
Conditions | NOMO1 [1] | P12-Ichikawa [2] | SEM cells [3]
HPLM + 10% dialyzed FBS, 0.000781 µM | 93.9 | 89 | 77.6
HPLM + 10% dialyzed FBS, 0.00234 µM | 94.4 | 102 | 88.7
HPLM + 10% dialyzed FBS, 0.00702 µM | 89.2 | 99.2 | 85.9
HPLM + 10% dialyzed FBS, 0.0211 µM | 90.8 | 97.1 | 73.8
HPLM + 10% dialyzed FBS, 0.0632 µM | 83.2 | 82.9 | 57.8
HPLM + 10% dialyzed FBS, 0.19 µM | 75 | 85.3 | 67.8
HPLM + 10% dialyzed FBS, 0.569 µM | 61.4 | 81.8 | 46.9
HPLM + 10% dialyzed FBS, 1.71 µM | 71.8 | 77.3 | 48.7
HPLM + 10% dialyzed FBS, 5.12 µM | 72.7 | 73.8 | 47.5
HPLM + 10% dialyzed FBS, 15.4 µM | 69.2 | 70.9 | 34.4
HPLM + 10% dialyzed FBS, 46.1 µM | 67 | 77 | 29
RPMI 5 mM glucose + 10% FBS, 0.000781 µM | 98 | 84.7 | 97
RPMI 5 mM glucose + 10% FBS, 0.00234 µM | 96.7 | 90.8 | 102
RPMI 5 mM glucose + 10% FBS, 0.00702 µM | 96.9 | 84 | 90.1
RPMI 5 mM glucose + 10% FBS, 0.0211 µM | 104 | 75.5 | 80.6
RPMI 5 mM glucose + 10% FBS, 0.0632 µM | 90.4 | 68 | 56.7
RPMI 5 mM glucose + 10% FBS, 0.19 µM | 79 | 65.3 | 59.7
RPMI 5 mM glucose + 10% FBS, 0.569 µM | 72.7 | 62.9 | 48
RPMI 5 mM glucose + 10% FBS, 1.71 µM | 68.2 | 61.3 | 45
RPMI 5 mM glucose + 10% FBS, 5.12 µM | 62.3 | 59.6 | 45
RPMI 5 mM glucose + 10% FBS, 15.4 µM | 64 | 56.5 | 47.9
RPMI 5 mM glucose + 10% FBS, 46.1 µM | 63.7 | 49.8 | 30.9
RPMI 5 mM glucose + 10% dialyzed FBS, 0.000781 µM | 77.6 | 86.4 | 83.4
RPMI 5 mM glucose + 10% dialyzed FBS, 0.00234 µM | 100 | 98.3 | 92.6
RPMI 5 mM glucose + 10% dialyzed FBS, 0.00702 µM | 86.3 | 97.6 | 91.5
RPMI 5 mM glucose + 10% dialyzed FBS, 0.0211 µM | 86.5 | 80.5 | 84.1
RPMI 5 mM glucose + 10% dialyzed FBS, 0.0632 µM | 82.5 | 77.2 | 61.2
RPMI 5 mM glucose + 10% dialyzed FBS, 0.19 µM | 77.6 | 71.2 | 62.7
RPMI 5 mM glucose + 10% dialyzed FBS, 0.569 µM | 68.3 | 68.4 | 46
RPMI 5 mM glucose + 10% dialyzed FBS, 1.71 µM | 60.8 | 57.7 | 54.7
RPMI 5 mM glucose + 10% dialyzed FBS, 5.12 µM | 57.6 | 60.8 | 42.5
RPMI 5 mM glucose + 10% dialyzed FBS, 15.4 µM | 57.4 | 48.3 | 42.8
RPMI 5 mM glucose + 10% dialyzed FBS, 46.1 µM | 54.7 | 54.4 | 33.1

AUC of viability dose-response curve
Conditions | NOMO1 [4] | P12-Ichikawa [5] | SEM cells [6]
HPLM + 10% dialyzed FBS | 376 | 406 | 286
RPMI 5 mM glucose + 10% FBS | 388 | 328 | 297
RPMI 5 mM glucose + 10% dialyzed FBS | 352 | 347 | 300

Cc1cc(/C=c2/sc3nc4ccccc4n3c2=O)c(C)n1-c1ccccc1
cell viability [%]
Conditions | NOMO1 [1] | P12-Ichikawa [2] | SEM cells [3]
HPLM + 10% dialyzed FBS, 0.000781 µM | 117 | 121 | 115
HPLM + 10% dialyzed FBS, 0.00234 µM | 113 | 127 | 121
HPLM + 10% dialyzed FBS, 0.00702 µM | 128 | 123 | 93.5
HPLM + 10% dialyzed FBS, 0.0211 µM | 117 | 119 | 122
HPLM + 10% dialyzed FBS, 0.0632 µM | 132 | 123 | 112
HPLM + 10% dialyzed FBS, 0.19 µM | 120 | 119 | 128
HPLM + 10% dialyzed FBS, 0.569 µM | 130 | 128 | 125
HPLM + 10% dialyzed FBS, 1.71 µM | 119 | 125 | 108
HPLM + 10% dialyzed FBS, 5.12 µM | 128 | 122 | 128
HPLM + 10% dialyzed FBS, 15.4 µM | 113 | 113 | 110
HPLM + 10% dialyzed FBS, 46.1 µM | 123 | 112 | 101
RPMI 5 mM glucose + 10% FBS, 0.000781 µM | 111 | – | 117
RPMI 5 mM glucose + 10% FBS, 0.00234 µM | 128 | – | 119
RPMI 5 mM glucose + 10% FBS, 0.00702 µM | 115 | – | 113
RPMI 5 mM glucose + 10% FBS, 0.0211 µM | 127 | – | 137
RPMI 5 mM glucose + 10% FBS, 0.0632 µM | 125 | – | 117
RPMI 5 mM glucose + 10% FBS, 0.19 µM | 126 | – | 122
RPMI 5 mM glucose + 10% FBS, 0.569 µM | 105 | – | 130
RPMI 5 mM glucose + 10% FBS, 1.71 µM | 111 | – | 128
RPMI 5 mM glucose + 10% FBS, 5.12 µM | 119 | – | 125
RPMI 5 mM glucose + 10% FBS, 15.4 µM | 109 | – | 125
RPMI 5 mM glucose + 10% FBS, 46.1 µM | 104 | – | 118
RPMI 5 mM glucose + 10% dialyzed FBS, 0.000781 µM | 121 | 110 | 117
RPMI 5 mM glucose + 10% dialyzed FBS, 0.00234 µM | 127 | 126 | 110
RPMI 5 mM glucose + 10% dialyzed FBS, 0.00702 µM | 115 | 116 | 99.1
RPMI 5 mM glucose + 10% dialyzed FBS, 0.0211 µM | 137 | 132 | 121
RPMI 5 mM glucose + 10% dialyzed FBS, 0.0632 µM | 126 | 126 | 128
RPMI 5 mM glucose + 10% dialyzed FBS, 0.19 µM | 127 | 121 | 122
RPMI 5 mM glucose + 10% dialyzed FBS, 0.569 µM | 121 | 124 | 108
RPMI 5 mM glucose + 10% dialyzed FBS, 1.71 µM | 127 | 124 | 118
RPMI 5 mM glucose + 10% dialyzed FBS, 5.12 µM | 126 | 105 | 111
RPMI 5 mM glucose + 10% dialyzed FBS, 15.4 µM | 133 | 112 | 113
RPMI 5 mM glucose + 10% dialyzed FBS, 46.1 µM | 121 | 120 | 116

AUC of viability dose-response curve
Conditions | NOMO1 [4] | P12-Ichikawa [5] | SEM cells [6]
HPLM + 10% dialyzed FBS | 472 | 471 | 473
RPMI 5 mM glucose + 10% FBS | 455 | 476 | 466
RPMI 5 mM glucose + 10% dialyzed FBS | 472 | 467 | 473

CC(C)(C)NCC(O)c1ccc(O)c(CO)c1 (stereo not drawn)
cell viability [%]
Conditions | NOMO1 [1] | P12-Ichikawa [2] | SEM cells [3]
HPLM + 10% dialyzed FBS, 0.000781 µM | 100 | 117 | 101
HPLM + 10% dialyzed FBS, 0.00234 µM | 109 | 115 | 99.4
HPLM + 10% dialyzed FBS, 0.00702 µM | 109 | 114 | 103
HPLM + 10% dialyzed FBS, 0.0211 µM | 132 | 105 | 106
HPLM + 10% dialyzed FBS, 0.0632 µM | 119 | 119 | 113
HPLM + 10% dialyzed FBS, 0.19 µM | 114 | 121 | 102
HPLM + 10% dialyzed FBS, 0.569 µM | 107 | 110 | 112
HPLM + 10% dialyzed FBS, 1.71 µM | 70.5 | 97.8 | 106
HPLM + 10% dialyzed FBS, 5.12 µM | 55.5 | 90.5 | 104
HPLM + 10% dialyzed FBS, 15.4 µM | 47.8 | 86.5 | 109
HPLM + 10% dialyzed FBS, 46.1 µM | 44.7 | 80 | 93.6
RPMI 5 mM glucose + 10% FBS, 0.000781 µM | 102 | 101 | 118
RPMI 5 mM glucose + 10% FBS, 0.00234 µM | 98.3 | 116 | 113
RPMI 5 mM glucose + 10% FBS, 0.00702 µM | 105 | 121 | 115
RPMI 5 mM glucose + 10% FBS, 0.0211 µM | 106 | 114 | 112
RPMI 5 mM glucose + 10% FBS, 0.0632 µM | 112 | 111 | 108
RPMI 5 mM glucose + 10% FBS, 0.19 µM | 99.9 | 113 | 125
RPMI 5 mM glucose + 10% FBS, 0.569 µM | 107 | 103 | 109
RPMI 5 mM glucose + 10% FBS, 1.71 µM | 79.2 | 103 | 95.5
RPMI 5 mM glucose + 10% FBS, 5.12 µM | 78.1 | 84.4 | 107
RPMI 5 mM glucose + 10% FBS, 15.4 µM | 64.7 | 71.4 | 108
RPMI 5 mM glucose + 10% FBS, 46.1 µM | 51.4 | 68.3 | 111
RPMI 5 mM glucose + 10% dialyzed FBS, 0.000781 µM | 102 | 94.9 | 96.9
RPMI 5 mM glucose + 10% dialyzed FBS, 0.00234 µM | 109 | 108 | 112
RPMI 5 mM glucose + 10% dialyzed FBS, 0.00702 µM | 115 | 109 | 109
RPMI 5 mM glucose + 10% dialyzed FBS, 0.0211 µM | 114 | 106 | 124
RPMI 5 mM glucose + 10% dialyzed FBS, 0.0632 µM | 110 | 105 | 115
RPMI 5 mM glucose + 10% dialyzed FBS, 0.19 µM | 110 | 109 | 114
RPMI 5 mM glucose + 10% dialyzed FBS, 0.569 µM | 92.8 | 102 | 111
RPMI 5 mM glucose + 10% dialyzed FBS, 1.71 µM | 76.7 | 110 | 116
RPMI 5 mM glucose + 10% dialyzed FBS, 5.12 µM | 65.3 | 80.8 | 120
RPMI 5 mM glucose + 10% dialyzed FBS, 15.4 µM | 70.7 | 73.3 | 122
RPMI 5 mM glucose + 10% dialyzed FBS, 46.1 µM | 47 | 68.4 | 114

AUC of viability dose-response curve
Conditions | NOMO1 [4] | P12-Ichikawa [5] | SEM cells [6]
HPLM + 10% dialyzed FBS | 388 | 438 | 474
RPMI 5 mM glucose + 10% FBS | 420 | 431 | 461
RPMI 5 mM glucose + 10% dialyzed FBS | 399 | 442 | 470
